The values that follow come from ChEMBL document CHEMBL1154597, “1,1'-Disubstituted ferrocenes as molecular hinges in mono- and bivalent dopamine receptor ligands” (J Med Chem, 2009).

Test [1] deals with D(1A) dopamine receptor (Sus scrofa, UniProt P50130). Put plainly: Displacement of [3H]SCH23390 from dopamine D1 receptor in pig striatal membranes. The format is cell membranes, Striatum, Membrane. On the technique in general: Displacement assays read how much labelled ligand stays bound in the presence of the test substance.
Test [2] has as its target T1, D(2) dopamine receptor (Homo sapiens, UniProt P14416). Put plainly: Displacement of [3H]spiperone from human cloned dopamine D2short receptor expressed in CHO cells. The format is cell-based.
Test [3] in a line: Displacement of [3H]WAY100635 from 5HT1A receptor in pig striatal membranes. The format is cell membranes, Sus scrofa, Striatum, Membrane.
The target of test [4] is T2, D(4) dopamine receptor (Homo sapiens, UniProt P21917).
T2 sequence (P21917 whole entry): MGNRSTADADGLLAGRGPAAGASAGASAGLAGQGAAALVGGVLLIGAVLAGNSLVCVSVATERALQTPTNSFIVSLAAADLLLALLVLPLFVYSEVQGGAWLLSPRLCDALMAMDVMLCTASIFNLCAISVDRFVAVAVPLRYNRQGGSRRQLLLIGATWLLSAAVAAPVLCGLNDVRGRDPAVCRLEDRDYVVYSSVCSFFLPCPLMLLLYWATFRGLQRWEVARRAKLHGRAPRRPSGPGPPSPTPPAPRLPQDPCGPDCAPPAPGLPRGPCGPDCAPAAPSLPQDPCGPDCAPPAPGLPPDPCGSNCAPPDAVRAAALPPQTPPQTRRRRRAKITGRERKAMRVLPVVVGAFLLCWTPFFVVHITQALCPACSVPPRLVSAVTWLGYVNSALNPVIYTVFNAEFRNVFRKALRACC
The test can be described thus: Displacement of [3H]spiperone from human cloned dopamine D4.4 receptor expressed in CHO cells. The test is classed as cell-based.

Test [5] can be described thus: Displacement of [3H]prazosin from adrenergic alpha1 receptor in pig striatal membranes. The format is cell membranes, Sus scrofa, Striatum, Membrane.
The target of test [6] is 5-hydroxytryptamine receptor 2A (Sus scrofa, UniProt P50129). Put plainly: Displacement of [3H]ketanserin from 5HT2 receptor in pig striatal membranes. The format is cell membranes, Striatum, Membrane.
For test [7], the target named is D(3) dopamine receptor (Homo sapiens, UniProt P35462). The test can be described thus: Displacement of [3H]spiperone from human cloned dopamine D3 receptor expressed in CHO cells. The format is cell-based.
Test [8] concerns the target T1, D(2) dopamine receptor. The test can be described thus: Displacement of [3H]spiperone from human cloned dopamine D2long receptor expressed in CHO cells. The format is cell-based.

T1 sequence (P14416 whole entry): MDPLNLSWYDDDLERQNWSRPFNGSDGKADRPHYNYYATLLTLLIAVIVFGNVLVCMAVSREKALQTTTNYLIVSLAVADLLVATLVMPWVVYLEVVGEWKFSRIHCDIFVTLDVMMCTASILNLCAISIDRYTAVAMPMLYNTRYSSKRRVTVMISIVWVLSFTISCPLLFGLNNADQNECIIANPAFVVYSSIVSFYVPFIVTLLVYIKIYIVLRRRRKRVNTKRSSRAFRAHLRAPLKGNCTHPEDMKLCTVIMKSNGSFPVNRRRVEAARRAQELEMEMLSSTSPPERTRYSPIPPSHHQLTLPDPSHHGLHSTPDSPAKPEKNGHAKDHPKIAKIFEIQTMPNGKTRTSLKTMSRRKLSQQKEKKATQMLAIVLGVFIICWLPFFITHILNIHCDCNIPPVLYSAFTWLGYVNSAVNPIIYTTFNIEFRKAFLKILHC
Chain of 5-hydroxytryptamine receptor 2A (P50129 whole entry): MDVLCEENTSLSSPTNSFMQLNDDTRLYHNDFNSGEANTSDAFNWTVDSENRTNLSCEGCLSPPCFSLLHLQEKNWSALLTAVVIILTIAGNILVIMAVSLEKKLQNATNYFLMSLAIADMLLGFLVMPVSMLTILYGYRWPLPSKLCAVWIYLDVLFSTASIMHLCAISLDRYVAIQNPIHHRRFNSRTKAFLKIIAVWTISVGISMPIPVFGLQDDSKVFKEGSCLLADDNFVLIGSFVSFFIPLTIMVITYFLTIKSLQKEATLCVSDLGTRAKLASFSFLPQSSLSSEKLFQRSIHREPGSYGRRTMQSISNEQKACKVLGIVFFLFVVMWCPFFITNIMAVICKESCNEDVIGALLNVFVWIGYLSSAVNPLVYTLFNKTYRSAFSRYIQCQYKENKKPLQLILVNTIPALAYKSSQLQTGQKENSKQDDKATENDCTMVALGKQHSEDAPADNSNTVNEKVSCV
Chain of D(1A) dopamine receptor (P50130 whole entry): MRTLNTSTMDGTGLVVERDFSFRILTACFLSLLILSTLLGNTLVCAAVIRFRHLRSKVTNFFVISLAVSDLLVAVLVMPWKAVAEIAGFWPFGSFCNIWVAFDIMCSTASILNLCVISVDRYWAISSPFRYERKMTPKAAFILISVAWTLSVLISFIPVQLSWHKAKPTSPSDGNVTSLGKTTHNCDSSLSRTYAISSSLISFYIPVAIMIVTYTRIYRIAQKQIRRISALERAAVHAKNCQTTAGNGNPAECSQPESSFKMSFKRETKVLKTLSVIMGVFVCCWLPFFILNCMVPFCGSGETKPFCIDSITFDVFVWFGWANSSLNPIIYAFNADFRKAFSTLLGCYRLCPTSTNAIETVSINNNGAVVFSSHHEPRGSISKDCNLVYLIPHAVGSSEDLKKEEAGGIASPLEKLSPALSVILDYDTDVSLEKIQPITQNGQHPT
Chain of D(3) dopamine receptor (P35462 whole entry): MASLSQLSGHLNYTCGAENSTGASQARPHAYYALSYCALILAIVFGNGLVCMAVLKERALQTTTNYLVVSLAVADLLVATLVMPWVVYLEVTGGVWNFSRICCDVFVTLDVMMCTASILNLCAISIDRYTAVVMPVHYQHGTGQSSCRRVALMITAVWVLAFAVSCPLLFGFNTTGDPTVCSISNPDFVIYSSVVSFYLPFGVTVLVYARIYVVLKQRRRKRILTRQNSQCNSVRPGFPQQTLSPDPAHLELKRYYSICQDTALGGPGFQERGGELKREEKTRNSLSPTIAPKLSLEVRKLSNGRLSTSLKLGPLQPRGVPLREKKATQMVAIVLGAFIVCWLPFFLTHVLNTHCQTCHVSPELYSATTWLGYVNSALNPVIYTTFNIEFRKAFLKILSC

For `COc1ccccc1N1CCN(CCCCNC(=O)c2ccc(-c3cn(Cc4ccc(-c5ccc(Cn6cc(-c7ccc(C(=O)NCCCCN8CCN(c9ccccc9OC)CC8)cc7)nn6)cc5)cc4)nn3)cc2)CC1`, the Ki was 9500 nM in test [1]; 770 nM in test [2]; 1200 nM in test [3]; 850 nM in test [4]; 230 nM in test [5]; 1700 nM in test [6]. For the same molecule, the results for the Ki in test [7] and in test [8] were 70 nM and 2000 nM, respectively.
Take `COc1ccccc1N1CCN(CCCCNC(=O)c2cccc(-c3cn(Cc4ccc(-c5ccc(Cn6cc(-c7cccc(C(=O)NCCCCN8CCN(c9ccccc9OC)CC8)c7)nn6)cc5)cc4)nn3)c2)CC1`: the Ki in test [1] was 3400 nM; in test [2], 10000 nM; in test [3], 2500 nM; in test [4] it was 3400 nM; in test [5], 350 nM; in test [6] it was 3400 nM. Further, the Ki came to 230 nM in test [7] and 15000 nM in test [8].

One may read the Ki as a measure of affinity in units of concentration, obtained from inhibition or displacement. Low readings indicate higher affinity, high ones lower affinity.
